Measured values taken from patent publication US9868695B2 (priority 2014, dated 2018).
In brackets after ≈: the same amount, converted by molar mass. Like-named read-outs stand apart in the source and are kept apart here.

Tests used:
Colo-205 = assay: Antiproliferative activity, MTT assay, Colo-205; assay type: cell-based; settings: Homo sapiens, 48 h
Procedure: (§1) Human colon cancer cell lines HCT-116 (NCI, passage no. 5) and Colo-205 116 (NCI, passage no. 3) were procured from National Cancer Institute, USA. HCT-116 and Colo-205 cells were grown in McCoy's 5A and RPMI growth medium respectively containing 10% FCS, 100 U penicillin and […] per mL medium. Cells were grown in CO2 incubator (Thermocon Electron Corporation, Houston, Tex.) at 37° C. with 95% humidity and 5% CO2 gas environment. Cells treated with tested materials were dissolved in DMSO while the untreated control cultures received only the vehicle (DMSO<0.2%). Cells were seeded in 96 well plates and exposed to tested compounds at various concentrations for 48 h time interval. MTT dye (2.5 mg/ml in PBS) was added 4 hrs priors to experiment termination. The plates were then centrifuged at 1500 rpm for 15 min and the supernatant was discarded, and MTT formazan crystals were dissolved in 150 μl of DMSO. The OD measured at 570 nm with reference wavelength of 620 nm.
(§2) The percentages of cell viability and growth inhibition were calculated using formulas: […]

HCT-116 = assay: Antiproliferative activity, MTT assay, HCT-116; assay type: cell-based, Human
Procedure: as §1, §2

Ehrlich solid tumor = assay: In vivo activity in Ehrlich solid tumor model; parameters: species or system swiss mice; settings: for % Tumor Growth Inhibition: day 13 vs saline control; for Mortality: dead/group size
Procedure: Ehrlich ascites carcinoma (EAC) cells were collected from the peritoneal cavity of the swiss mice (animal house of IIIM registered eith CPCSEA; registration no. 67/99/CPCSEA) weighing 18-23 gm, harbouring 8-10 days old ascitic tumor. 1×10^7 EAC cells were injected intramuscularly in the right thigh of 38 swiss male mice selected for the experiment on day 0. The next day, animals were randomized and divided into five groups. Four treatment groups contained 7 animals each and one control group contained 10 animals. Treatment was given as follows:
Group I: 1 (0.75 mg/kg, i/p) from day 1-9.
Group II: 1g (1 mg/kg, i/p) from day 1-9.
The third treatment group was treated with 5-fluorouracil (22 mg/kg, i/p) from day 1-9 and it served as positive control. The control group was similarly administered normal saline (0.2 ml, i/p) from day 1-9. On day 9 & 13, tumor bearing thigh of each animal was shaved and longest and shortest diameters of the tumor were measured with the help of vernier caliper. Tumor weight of each animal was calculated using the following formula.
The percent tumor growth inhibition was calculated on day 13 by comparing the average values of treated groups with that of control group. Tumor growth in saline treated control animals was taken to be 100%.

[1] = system: microtubules in HCT-116 cells; assay: Effect of compounds on microtubules, confocal microscopy; assay type: cell-based, Human; settings: 100 nM, 24 h, anti-α-tubulin staining, compared to control
Procedure: For detection of tubulins, HCT-116 cells (1×10^5 cells/well) were seeded on to 18 mm square cover slips in six well plates in complete medium. […] After the treatment period, cells were fixed in 4% paraformaldehyde for 10 min at room temperature and permeabilized using 0.5% Triton-X in PBS for 5 min. The cells were blocked with 10% goat serum for 20 min at room temperature. Microtubules were detected with a monoclonal α-tubulin antibody (Sigma, Catalogue number: T9026) diluted 1:100 in 0.1% Triton X-100 in PBS for 1 h at room temperature and Alexa Fluor 488 conjugated secondary antibody (Invitrogen) diluted 1:500 in PBS for 1 h at room temperature. Cells were then washed three times in PBS and stained with 4′,6-diamidino-2-phenylindole (DAPI 1 μg/ml in PBS). The cover slips were mounted over glass slides and cells were imaged by a laser scanning confocal microscope (Olympus Fluoview FV1000). The promising candidates identified through P-gp screening and antiproliferative screening were further studied for tubulin polymerization inhibition activity.

P-gp = P-gp induction assay, rhodamine123 (Rh123) cell exclusion method in LS-180 cells; settings: for % intracellular accumulation of Rh123 in LS180 cells: compound 100 nM, decrease indicates P-gp induction; for % intracellular accumulation of Rh123 in LS180 cells / EC50: 48 h; for EC50: read-out: EC50, induction of P-gp, P-gp overexpressing LS-180 cells
Procedure: All synthesized compounds were screened for their ability to induce P-gp by using rhodamine123 (Rh123) cell exclusion method. In this method, the P-gp function was evaluated in terms of rhodamine 123 (Rh123) accumulation and efflux. Briefly, the protocol used is as follows: Colorectal LS-180 cells (ECACC type, purchased from Sigma, Cat. no. 87021202, cell passage no. 52) were seeded at a density of 2×10^4 per well of 96 well plate and were allowed to grow for next 24 h. Cells were further incubated with the test compounds, and were diluted to a final concentration of 100 nM and rifampicin (standard) to a final concentration of 10 μM in complete media for 48 h. The final concentration of DMSO was kept at 0.1%. Drugs were removed and cells were incubated with HANKS buffer for 40 minutes before further incubation with HANKS buffer (containing 10 μM of Rh123 as a P-gp substrate) for 90 minutes. At the end of Rh123 treatment cells were washed four times with cold PBS followed by cell lysis for 1 h by using 200 μl of lysis buffer (0.1% Triton X-100 and 0.2 N NaOH). A total of 100 μl of lysate was used for reading fluorescence of Rh123 at 485 nm/529 nm. Samples were normalized by dividing fluorescence of each sample with total protein present in the lysate. For EC50 determination, different concentrations of compound were used to treat LS180 cells for 48 h. EC50 was determined by plotting fluorescence of Rh123 against concentration of compound.

[2] = Thermodynamic equilibrium solubility; assay type: physicochemical; settings: 25 °C, thermodynamic from solid, 25±1° C.
Procedure: The compounds were first dissolved in methanol to prepare stock solutions (100 and 1000 μg/mL). Different concentrations of stock solutions were pipetted into the 96-well plates and the solvent was evaporated to ensure that solid drug was present in the beginning of the experiment. Thereafter, 200 μl of the dissolution medium was added to the wells and 96-well plate was shaken horizontally at 300 rpm (Eppendorf Thermoblock Adapter, North America) for 4 h at room temperature (25±1° C.). The plates were kept overnight for equilibration of drug in medium. Later, the plates were centrifuged at 3000 rpm for 15 min (Jouan centrifuge BR4i). Supernatant (50 μl) was pipetted into UV 96-well plates (Corning® 96 Well Clear Flat Bottom UV-Transparent Microplate) for analyses with plate reader (SpectraMax Plus384) at λmax of 350 nm. The analyses were performed in triplicate for each compound. The solubility curve of concentration (μg/mL) vs absorbance was plotted to find out saturation point and the corresponding concentration was noted.

[3] = day 13, i/p day 1-9, 1 0.75 mg/kg, 1g 1 mg/kg, 5-fluorouracil 22 mg/kg
[4] = i/p day 1-9, 1 0.75 mg/kg, 1g 1 mg/kg, 5-fluorouracil 22 mg/kg
[5] = aqueous buffer, phosphate buffer saline, read-out: Solubility, PBS
[6] = fassgf or other biorelevant, simulated intestinal fluid, read-out: Solubility, SIF
[7] = simulated gastric fluid, read-out: Solubility, SGF
[8] = water, read-out: Solubility, Water

**Q.** Which IC50 (Colo-205) does the source give for `COc1cc2c(c(OC)c1OC)-c1ccc(N3CCN(C(=O)OC(C)(C)C)CC3)c(=O)cc1C(NC(C)=O)CC2` [Compound 1c, N-[(7S)-1,2,3-Trimethoxy-9-oxo-10-(N-boc-piperazin-1-yl)-5,6,7,9-tetrahydrobenzo[a]heptalen-7-yl]acetamide] here?
**A.** Its IC50 is 3000 nM.

**Q.** What about the IC50 (HCT-116; Homo sapiens, HCT-116, 48 h) of the same compound?
**A.** The IC50 was 4000 nM.

**Q.** For `COc1cc2c(c(OC)c1OC)-c1ccc(N3CCC[C@@H]3CO)c(=O)cc1C(NC(C)=O)CC2` (stereo partly drawn) [Compound 1e, N-[(7S)-1,2,3-Trimethoxy-9-oxo-10-(L-prolinol-1-yl)-5,6,7,9-tetrahydrobenzo[a]heptalen-7-yl]acetamide], which IC50 (Colo-205) is on record?
**A.** The IC50 was 8000 nM.

**Q.** What about the IC50 (HCT-116; Homo sapiens, HCT-116, 48 h) of the same compound?
**A.** Its IC50 is 10000 nM.

**Q.** What does the source list for `COc1cc2c(c(OC)c1OC)-c1ccc(OC)c(=O)cc1[C@@H](NC(C)=O)CC2` [Compound 1, Colchicine]?
**A.** mortality, animals in the group of 7 animals (Ehrlich solid tumor; colchicine 0.75 mg/kg, i/p): 2 animals; mortality, animals in the group of 7 animals (Ehrlich solid tumor; colchicine 1 mg/kg, i/p, text and footnote): 5 animals; Avg. body weights (g) of animal on days 1 (Ehrlich solid tumor; day 1, i/p day 1-9, 1 0.75 mg/kg, 1g 1 mg/kg, 5-fluorouracil 22 mg/kg): 22.28 g; Avg. body weights (g) of animal on days 5 (Ehrlich solid tumor; day 5, i/p day 1-9, 1 0.75 mg/kg, 1g 1 mg/kg, 5-fluorouracil 22 mg/kg): 21.42 g; Avg. body weights (g) of animal on days 9 (Ehrlich solid tumor; day 9, i/p day 1-9, 1 0.75 mg/kg, 1g 1 mg/kg, 5-fluorouracil 22 mg/kg): 20.2 g; Day 13 Avg. body weights (Ehrlich solid tumor; [3]): 19.25 g; Day 13 Avg. tumor weights (Ehrlich solid tumor; [3]): 705.0 mg; % Tumor Growth Inhibition (Ehrlich solid tumor; [4]): 52.29%; Mortality (Ehrlich solid tumor; colchicine 1 mg/kg, i/p): 5/7; Mortality (Ehrlich solid tumor; [4]): 2/7; disruption of microtubule assembly [1]: remarkable disruption and loss of microtubules; % intracellular accumulation of Rh123 in LS180 cells (P-gp; control = 100%): 62%; EC50 (P-gp): 14.4 nM; solubility [2, 5]: 800 µg/mL (≈ 2000 µM); solubility [2, 6]: 800 µg/mL (≈ 2000 µM); solubility [2, 7]: 200 µg/mL (≈ 501 µM); solubility [2, 8]: > 1500 µg/mL

**Q.** For `CO[C@H]1/C=C/O[C@@]2(C)Oc3c(C)c(O)c4c(O)c(c(/C=N/N5CCN(C)CC5)c(O)c4c3C2=O)NC(=O)/C(C)=C\C=C\[C@H](C)[C@H](O)[C@@H](C)[C@@H](O)[C@@H](C)[C@H](OC(C)=O)[C@@H]1C` [rifampicin, reference compound], which “% intracellular accumulation of Rh123” value (P-gp; rifampicin 10 μM, positive control, control = 100%) is on record?
**A.** The value was 69%.

**Q.** With `COc1cc2c(c(OC)c1OC)-c1ccc(N3CCc4c([nH]c5ccccc45)C3)c(=O)cc1[C@@H](NC(C)=O)CC2` [Compound 1f, N-[(7S)-1,2,3-Trimethoxy-9-oxo-10-(2,3,4,9-tetrahydro-1H-pyrido[3,4-b]indole-2-yl)-5,6,7,9-tetrahydrobenzo[a]heptalen-7-yl]acetamide] as the compound, how does the IC50 (Colo-205) read?
**A.** Its IC50 is 800 nM.

**Q.** And the IC50 (HCT-116; Homo sapiens, HCT-116, 48 h)?
**A.** The IC50 was 3000 nM.

**Q.** What about the “% intracellular accumulation of Rh123 in LS180 cells” value (P-gp; control = 100%) of the same compound?
**A.** Its value is 90%.

**Q.** What does the source list for `COc1cc2c(c(OC)c1OC)-c1ccc(N3CCNCC3)c(=O)cc1[C@@H](NC(C)=O)CC2` [Compound 1a, N-[(7S)-1,2,3-Trimethoxy-9-oxo-10-(piperazin-1-yl)-5,6,7,9-tetrahydrobenzo[a]heptalen-7-yl]acetamide]?
**A.** melting point: 158 to 161 °C; IC50 (Colo-205): 8000 nM; IC50 (HCT-116; Homo sapiens, HCT-116, 48 h): > 10000 nM; % intracellular accumulation of Rh123 in LS180 cells (P-gp; control = 100%): 90%

**Q.** Which IC50 (Colo-205) does the source give for `COc1cc2c(c(OC)c1OC)-c1ccc(N3CCC(c4ccccc4)CC3)c(=O)cc1C(NC(C)=O)CC2` [Compound 1d, N-[(7S)-1,2,3-Timethoxy-9-oxo-10-(4-phenyl-piperidin-1-yl)-5,6,7,9-tetrahydrobenzo[a]heptalen-7-yl]acetamide] here?
**A.** Its IC50 is 800 nM.

**Q.** What about the IC50 (HCT-116; 48 h) of the same compound?
**A.** The IC50 was 1000 nM.

**Q.** And the IC50 (HCT-116; Homo sapiens, HCT-116, 48 h)?
**A.** The IC50 was no more than 1000 nM.

**Q.** What about the “% intracellular accumulation of Rh123 in LS180 cells” value (P-gp; control = 100%) of the same compound?
**A.** Its value is 90%.

**Q.** What about the EC50 (P-gp) of the same compound?
**A.** Its EC50 is 29.6 nM.

**Q.** And the solubility [2, 5]?
**A.** The solubility was 80 µg/mL (≈ 151 µM).

**Q.** And the solubility [2, 6]?
**A.** Its solubility is 20 µg/mL (≈ 37.8 µM).

**Q.** What about the solubility [2, 7] of the same compound?
**A.** The solubility was greater than 1500 µg/mL.

**Q.** What about the solubility [2, 8] of the same compound?
**A.** The solubility was 80 µg/mL (≈ 151 µM).

**Q.** For `COc1cc2c(c(OC)c1OC)-c1ccc(N3CCC(N)CC3)c(=O)cc1[C@@H](NC(C)=O)CC2` [Compound 1b, N-[(7S)-1,2,3-Trimethoxy-9-oxo-10-(4-amino-piperidin-1-yl)-5,6,7,9-tetrahydrobenzo[a]heptalen-7-yl]acetamide], which IC50 (Colo-205) is on record?
**A.** The IC50 was 5000 nM.

**Q.** What about the IC50 (HCT-116; Homo sapiens, HCT-116, 48 h) of the same compound?
**A.** The IC50 was 10000 nM.

**Q.** And the “% intracellular accumulation of Rh123 in LS180 cells” value (P-gp; control = 100%)?
**A.** The value was 90%.

**Q.** With `O=c1[nH]cc(F)c(=O)[nH]1` [5-Fluorouracil] as the compound, how does the “Day 13 Avg. tumor weights” value (Ehrlich solid tumor; [3]) read?
**A.** The value was 668.2 mg.

**Q.** And the “% Tumor Growth Inhibition” value (Ehrlich solid tumor; [4])?
**A.** Its value is 54.78%.

**Q.** What about the Mortality (Ehrlich solid tumor; [4]) of the same compound?
**A.** Its Mortality is 0/7.
